Values quoted from earlier work, collected in US20240109972A1, “ANTIBODY AND TAXANE COMBINATION THERAPY” (Genmab A/S, priority 2020, published 2024).

Test system: cervical cancer
Conditions: first-line, combined with paclitaxel and platinum (cisplatin or carboplatin) or paclitaxel and topotecan; cited from earlier work

bevacizumab
Median OS: approximately 18 months
ORR: 48%
